Results as given in patent publication US20260091082A1, “CYCLIC PEPTIDE DERIVATIVE COMPOSITION FOR TREATING OR PREVENTING EYE DISEASE” (DKS Co. Ltd., priority 2022, published 2026).
Where “and” joins values, the source holds several entries; their conditions need not be identical. Equal entries are not always repeated. Entries after “also recorded” stand apart in the source; their conditions may differ.

Assays:
[1] = General condition observation (clinical signs) in anterior chamber aqueous humor pressure load rat model; type: in vivo, Rat; Slc: SD; set-up: key: —: No anormal sign; settings: 1 mg/mL eye drop, right eye, per animal
Procedure: • Species and strains: Rat; Slc: SD • Number of animals on arrival and sex: 50 males • Age in weeks at arrival: 6 weeks old • Body weight range at arrival: 147.2 to 170.0 g • Source: Japan SLC, Inc.
The body weight of the animals was measured at a frequency of once a week or more, and the general condition observation was performed every day.
• Administration route: Eyedrop administration, intravenous administration • Administration method (eyedrop): Eyedrop administration was performed on a treated eye (right eye) of a rat using a micropipette 4 times a day (at intervals of 1.5 hours or more). • Administration method (intravenous): The amount of administration solution, calculated from the body weight on the day of administration, was administered from the tail vein using a syringe and an injection needle about 30 minutes before ischemic load. • Time of administration: Administration was performed according to the following schedule.

[2] = tested on: laser-induced choroidal neovascularization rat model; assay: Laser-induced choroidal neovascularization rat model: CNV area in choroidal flat mount (FITC-dextran); type: in vivo; settings: for Area of CNV Lesion, Mean: 14 days 4 times a day, N=10; for Area of CNV Lesion, Mean / Individual Value of CNV Area in Each Animal: 14 days after laser
Procedure: The groups were set as in Table 8 below. Laser irradiation was performed on the right eye in 10 animals in each group. EYLEA (registered trademark) was administered intravitreally into the right eye of individuals in Group 2 immediately after laser irradiation. For the individuals of Groups 1, 3, and 4, eyedrop administration of the administration substances of each group was performed four times a day from the day of laser irradiation to the day before eyeball enucleation.
Animals to be laser-irradiated were subjected to pupil dilation with Mydorin (registered trademark) P ophthalmic solution, and subjected to general anesthesia by intramuscular injection of a mixed solution of ketamine hydrochloride/xylazine hydrochloride (4:1, v/v) (1 mL/kg) into the thigh muscle. Then, fundus of the right eye was then observed using a slit lamp (SL-130, Carl Zeiss Meditec AG), and laser irradiation was performed at six locations using a green laser photocoagulation device (GYC-500, Nidek Co., Ltd.), avoiding thick capillaries of the retina. The laser conditions were a wavelength of 532 nm (green), a spot size of 50 μm, an irradiation time of 0.1 sec, and a laser irradiation intensity of 300 mW. Except for the individuals to be administered EYLEA (registered trademark), sodium hyaluronate (Hyalein (registered trademark) ophthalmic solution 0.3%, Santen Pharmaceutical Co., Ltd.) as an eye drop for treatment of corneal and conjunctival epithelial disorders was instilled into both eyes after laser irradiation.
Levofloxacin hydrate (CRAVIT (registered trademark) 1.5% ophthalmic solution, Santen Pharmaceutical Co., Ltd.) as a broad-spectrum antibacterial eye drop and oxybuprocaine hydrochloride (Benoxil (registered trademark) 0.4% ophthalmic solution, Santen Pharmaceutical Co., Ltd.) as an ophthalmic topical anesthetic were once instilled into the right eye of rats in Group 2 (EYLEA (registered trademark) administration group) after end of laser irradiation, and then EYLEA (registered trademark) was intravitreally administered at a dose of 200 μg/5 μL/eye using a 33 G two-stage injection needle and a microsyringe (Ito Manufacturing Co., Ltd.). The microsyringe was washed with D-PBS before administration. Hyalein (registered trademark) ophthalmic solution 0.3% was instilled into both eyes after intravitreal administration.
Eyedrop administration of the test substance and the negative control administration solution was performed in a volume of 5 μL/eye using a micropipette (Eppendorf Research Plus V, Eppendorf) at the administration period and the number of times determined for each group (see Group constitution table of Item (2)). At that time, since a test substance solution adheres to an outer side of the tip, care was taken so that the adhering test substance solution was wiped off with a Kimwipe once each time of eyedrop administration, and an excessive amount of the test substance solution was not instilled. In addition, although the tip of the pipette tip was sharp, care was taken not to damage the eyeball surface. Immediately before administration, the administration solution was lightly (about several seconds) centrifuged using a small microcentrifuge Wonder Spin, and the supernatant was used for administration.
Fourteen days after laser irradiation (Day 14), under general anesthesia by intramuscular femoral administration (1 mL/kg) of a ketamine hydrochloride/xylazine hydrochloride (4:1, v/v) mixed solution, a 4% FITC-dextran solution was administered to the tail vein at a dose of 40 mg/l mL/animal.
After 1 minute from the tail vein administration of the 4% FITC-dextran solution, rats were euthanized by excessive anesthesia by administration of 129.6 mg/mL sodium pentobarbital solution and the right eye ball was enucleated. The enucleated eyeball was fixed in a 4% paraformaldehyde phosphate buffer (FUJIFILM Wako Pure Chemical Corporation, hereinafter referred to as 4% PFA) for 12 to 30 hours at normal temperature. […]

CC[C@@]1(C)Oc2cc(ccc2O)C[C@H](NC)C(=O)N[C@@H](C(C)C)C(=O)N[C@@H]1C(=O)N[C@@H](CC(=O)O)C(=O)O [Compound 9]
Clinical signs ([1]; Day 0, animals 201-210 (test group 2, dosed on the 2 days before model creation)): —
Clinical signs ([1]; Day 0, animals 301-310 (test group 3, dosed 13 days from the day after model creation)): —
Clinical signs ([1]; Day 1, animals 201-210 (test group 2, dosed on the 2 days before model creation)): —
Clinical signs ([1]; Day 1, animals 301-310 (test group 3, dosed 13 days from the day after model creation)): —
Clinical signs ([1]; Day 2, animals 201-210 (test group 2, dosed on the 2 days before model creation)): —
Clinical signs ([1]; Day 2, animals 301-310 (test group 3, dosed 13 days from the day after model creation)): —
Clinical signs ([1]; Day 3, animals 201-210 (test group 2, dosed on the 2 days before model creation)): —
Clinical signs ([1]; Day 3, animals 301-310 (test group 3, dosed 13 days from the day after model creation)): —
Clinical signs ([1]; Day 4, animals 201-210 (test group 2, dosed on the 2 days before model creation)): —
Clinical signs ([1]; Day 4, animals 301-310 (test group 3, dosed 13 days from the day after model creation)): —
Clinical signs ([1]; Day 5, animals 201-210 (test group 2, dosed on the 2 days before model creation)): —
Clinical signs ([1]; Day 5, animals 301-310 (test group 3, dosed 13 days from the day after model creation)): —
Clinical signs ([1]; Day 6, animals 201-210 (test group 2, dosed on the 2 days before model creation)): —
Clinical signs ([1]; Day 6, animals 301-310 (test group 3, dosed 13 days from the day after model creation)): —
Clinical signs ([1]; Day −1, animals 201-210 (test group 2, dosed on the 2 days before model creation)): —
Clinical signs ([1]; Day −1, animals 301-310 (test group 3, dosed 13 days from the day after model creation)): —
Clinical signs ([1]; Day −2, animals 201-210 (test group 2, dosed on the 2 days before model creation)): —
Clinical signs ([1]; Day −2, animals 301-310 (test group 3, dosed 13 days from the day after model creation)): —
Area of CNV Lesion, Mean ([2]; Group 3, eye drop 5 μg/5 μL/eye (1 mg/mL)): 471160.8 pixel
Individual Value of CNV Area in Each Animal ([2]; Group 3 individual animals, eye drop 5 μg/5 μL/eye): 330375.8 pixel and 515551.8 pixel and 492136.5 pixel and 558285.0 pixel and 496494.0 pixel and 466828.5 pixel and 460996.3 pixel and 460127.0 pixel and 449544.0 pixel and 481268.8 pixel
Area of CNV Lesion, Mean ([2]; Group 4, eye drop 50 μg/5 μL/eye (10 mg/mL)): 444173.4 pixel
Individual Value of CNV Area in Each Animal ([2]; Group 4 individual animals, eye drop 50 μg/5 μL/eye): 313878.7 pixel and 591175.3 pixel and 382504.5 pixel and 527509.5 pixel and 426003.0 pixel and 447473.0 pixel and 394615.5 pixel and 494652.3 pixel and 438691.5 pixel and 425230.3 pixel
CNV area compared with Group 1 (saline) / drug efficacy, in words ([2]; eyedrop 1 mg/mL (Group 3) and 10 mg/mL (Group 4), Dunnett's test): no significant difference in CNV area was observed; also recorded: no drug efficacy on CNV area was observed
Dose dependence of CNV area reduction, in words ([2]; eyedrop 1 mg/mL and 10 mg/mL, 4 times/day for 14 days): reduction in CNV area correlated with the eyedrop administration dose was confirmed
